Test results as given in patent US11420956B2, “Ureas having Androgen Receptor degradation activity and uses thereof” (ACCUTAR BIOTECHNOLOGY INC., priority 2019, dated 2022).
Changes are numbered by the printed parent chain.

How the values were obtained:
androgen receptor (AR) [1] = target: T1, androgen receptor (AR) (Homo sapiens, UniProt P10275, T878A); experiment: AR degradation in LNCAP cells (Western blot); type: cell-based; conditions: 24 hours after administration
T1 construct: endogenous in cells; host or cells: LNCAP
T1 sequence (P10275 1-920 T878A): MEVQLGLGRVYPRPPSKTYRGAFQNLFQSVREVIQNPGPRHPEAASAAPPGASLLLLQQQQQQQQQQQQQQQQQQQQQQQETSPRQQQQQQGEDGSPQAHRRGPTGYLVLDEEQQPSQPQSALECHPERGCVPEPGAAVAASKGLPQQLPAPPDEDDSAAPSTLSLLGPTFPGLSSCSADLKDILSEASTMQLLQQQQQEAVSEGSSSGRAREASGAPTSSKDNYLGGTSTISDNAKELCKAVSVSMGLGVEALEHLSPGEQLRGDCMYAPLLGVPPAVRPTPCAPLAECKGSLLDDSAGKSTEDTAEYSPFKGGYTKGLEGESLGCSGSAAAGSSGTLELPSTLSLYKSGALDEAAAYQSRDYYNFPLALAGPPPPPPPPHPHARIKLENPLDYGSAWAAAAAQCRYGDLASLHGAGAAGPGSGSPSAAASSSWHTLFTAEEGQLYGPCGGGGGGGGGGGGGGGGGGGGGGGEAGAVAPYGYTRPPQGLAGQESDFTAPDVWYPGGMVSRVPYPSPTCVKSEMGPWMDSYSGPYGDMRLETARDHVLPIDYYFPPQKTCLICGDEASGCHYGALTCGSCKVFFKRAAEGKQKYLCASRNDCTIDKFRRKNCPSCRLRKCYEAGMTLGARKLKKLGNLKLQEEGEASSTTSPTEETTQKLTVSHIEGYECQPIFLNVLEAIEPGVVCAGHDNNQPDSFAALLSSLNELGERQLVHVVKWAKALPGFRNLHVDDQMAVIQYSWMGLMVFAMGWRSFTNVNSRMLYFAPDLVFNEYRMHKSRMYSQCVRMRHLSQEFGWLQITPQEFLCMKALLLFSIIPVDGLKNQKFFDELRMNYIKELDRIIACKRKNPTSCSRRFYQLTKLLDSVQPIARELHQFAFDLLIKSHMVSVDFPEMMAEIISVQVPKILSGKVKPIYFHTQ
Experimental: (§1) LNCAP, VCAP and 22Rv1 cells were plated in 24-well plates at 1.5×10E5 cells/well in the RPMI growth medium containing 10% FBS and 1% Penicillin Streptomycin, and then incubated at 37° C. overnight. The following day, the test compound was administered to the cells by using 1000× compound stock solution prepared in DMSO at various concentrations. After administration of the compound, the cells were then incubated at 37° C. for 24 hours. Upon completion, the cells were washed with PBS and protein was collected in Laemmli sample buffer (1×; VWR International). Proteins in cell lysate were separated by SDS-PAGE and transferred to Odyssey nitrocellulose membranes (Licor) with iblot® dry blotting transfer system (ThermoFisher). Nonspecific binding was blocked by incubating membranes with Intercept Blocking Buffer (Licor) for 1 hour at room temperature with gentle shaking. The membranes were then incubated overnight at 4° C. with Primary antibodies rabbit anti-AR (1:1,000, Cell Signaling, 5153) and mouse anti-GAPDH (1:5,000, Santa Cruz Biotechnology, sc-47724) diluted in Intercept Blocking Buffer containing 0.1% Tween 20. After washing 3 times with TBS-T, the membranes were incubated with IRDye® […] goat anti-mouse IgG (1:20,000, Licor) or IRDye® […] goat anti-rabbit IgG (1:20,000, Licor) for 1 hour. After TBS-T washes, membranes were rinsed in TBS and scanned on Odyssey® CLx Imaging System (Licor). The bands were quantified using Image Studio™ Software (Licor).
(§2) Tables 5 and 6 summarize the androgen receptor (AR) degradative activity of exemplary compounds in LNCAP, VCAP and 22Rv1 cell lines 24 hours after administration. DC50: compound concentration needed for 50% target protein degradation.

androgen receptor (AR) [2] = target: T2, androgen receptor (AR) (Homo sapiens, UniProt P10275); experiment: AR degradation in VCAP cells (Western blot); type: cell-based; conditions: 24 hours after administration
T2 construct: endogenous in cells; host or cells: VCAP
T2 sequence (P10275 1-920): T1 sequence (P10275 1-920 T878A) with A878T
Experimental: as §1, §2

SMILES	DC50 (androgen receptor (AR) [1]) [nM]	DC50 (androgen receptor (AR) [2]) [nM]
C[C@@H]1CN(c2ccc(C#N)c(Cl)c2)[C@@H](C)CN1C(=O)Nc1ccc(N2CCC(CN3CCN(c4ccc5c(c4)C(=O)N(C4CCC(=O)NC4=O)C5=O)CC3)CC2)nc1 (stereo partly drawn) [Compound 1-14, (2R,5S)-4-(3-chloro-4-cyanophenyl)-N-(6-(4-((4-(2-(2,6-dioxopiperidin-3-yl)-1,3-dioxoisoindolin-5-yl)piperazin-1-yl)methyl)piperidin-1-yl)pyridin-3-yl)-2,5-dimethylpiperazine-1-carboxamide]	≤ 10	≤ 10
CC(C)N(CC1CCN(c2ccc(NC(=O)N3C[C@H](C)N(c4ccc(C#N)c5ncccc45)C[C@H]3C)cn2)CC1)C1CC(Oc2ccc3c(c2)C(=O)N(C2CCC(=O)NC2=O)C3=O)C1 (stereo partly drawn) [Compound 2-13, (2R,5S)-4-(8-cyanoquinolin-5-yl)-N-(6-(4-((((1r,3r)-3-((2-(2,6-dioxopiperidin-3-yl)-1,3-dioxoisoindolin-5-yl)oxy)cyclobutyl)(isopropyl)amino)methyl)piperidin-1-yl)pyridin-3-yl)-2,5-dimethylpiperazine-1-carboxamide]	> 100	–
CC(C)N(CC1CCN(c2ncc(NC(=O)N3C[C@H](C)N(c4ccc(C#N)c5ncccc45)C[C@H]3C)cn2)CC1)C1CC(Oc2ccc3c(c2)C(=O)N(C2CCC(=O)NC2=O)C3=O)C1 (stereo partly drawn) [Compound 2-14, (2R,5S)-4-(8-cyanoquinolin-5-yl)-N-(2-(4-((((1r,3r)-3-((2-(2,6-dioxopiperidin-3-yl)-1,3-dioxoisoindolin-5-yl)oxy)cyclobutyl)(isopropyl)amino)methyl)piperidin-1-yl)pyrimidin-5-yl)-2,5-dimethylpiperazine-1-carboxamide]	≤ 10	–
C[C@H]1CN(C(=O)Nc2ccc(N3CCC(CN4CCN(c5ccc6c(c5)C(=O)N(C5CCC(=O)NC5=O)C6=O)CC4)CC3)nc2)CCN1c1ccc(C#N)c2ncccc12 (stereo partly drawn) [Compound 2-15, (3S)-4-(8-cyanoquinolin-5-yl)-N-(6-(4-((4-(2-(2,6-dioxopiperidin-3-yl)-1,3-dioxoisoindolin-5-yl)piperazin-1-yl)methyl)piperidin-1-yl)pyridin-3-yl)-3-methylpiperazine-1-carboxamide]	> 100	–
C[C@H]1CN(C(=O)Nc2cnc(N3CCC(CN4CCN(c5ccc6c(c5)C(=O)N(C5CCC(=O)NC5=O)C6=O)CC4)CC3)nc2)CCN1c1ccc(C#N)c2ncccc12 (stereo partly drawn) [Compound 2-16, (3S)-4-(8-cyanoquinolin-5-yl)-N-(2-(4-((4-(2-(2,6-dioxopiperidin-3-yl)-1,3-dioxoisoindolin-5-yl)piperazin-1-yl)methyl)piperidin-1-yl)pyrimidin-5-yl)-3-methylpiperazine-1-carboxamide]	> 100	–

Now from value to molecule, other results behind:

DC50 (androgen receptor (AR) [1]) [nM]	SMILES	DC50 (androgen receptor (AR) [2]) [nM]
> 100	C[C@@H]1CN(c2ccc(C#N)c3ncccc23)[C@@H](C)CN1C(=O)Nc1cc(F)c(N2CCC(CN3CCN(c4ccc5c(c4)C(=O)N(C4CCC(=O)NC4=O)C5=O)CC3)CC2)cc1F (stereo partly drawn) [Compound 2-17, (2R,5S)-4-(8-cyanoquinolin-5-yl)-N-(4-(4-((4-(2-(2,6-dioxopiperidin-3-yl)-1,3-dioxoisoindolin-5-yl)piperazin-1-yl)methyl)piperidin-1-yl)-2,5-difluorophenyl)-2,5-dimethylpiperazine-1-carboxamide]	–
> 100	C[C@@H]1CN(c2ccc(C#N)c3ncccc23)[C@@H](C)CN1C(=O)Nc1cc(F)c(N2CCC(CN3CCN(c4ccc5c(c4)CN([C@H]4CCC(=O)NC4=O)C5=O)CC3)CC2)cc1F [Compound 2-18, (2R,5S)-4-(8-cyanoquinolin-5-yl)-N-(4-(4-((4-(2-((S)-2,6-dioxopiperidin-3-yl)-1-oxoisoindolin-5-yl)piperazin-1-yl)methyl)piperidin-1-yl)-2,5-difluorophenyl)-2,5-dimethylpiperazine-1-carboxamide]	–
> 100	C[C@@H]1CN(c2ccc(C#N)c3ncccc23)[C@@H](C)CN1C(=O)Nc1ccc(N2CCC(CN3CCN(c4ccc5c(c4)CN([C@H]4CCC(=O)NC4=O)C5=O)CC3)CC2)c(F)c1 [Compound 2-21, (2R,5S)-4-(8-cyanoquinolin-5-yl)-N-(4-(4-((4-(2-((S)-2,6-dioxopiperidin-3-yl)-1-oxoisoindolin-5-yl)piperazin-1-yl)methyl)piperidin-1-yl)-3-fluorophenyl)-2,5-dimethylpiperazine-1-carboxamide]	–
> 100	C[C@@H]1CN(c2ccc(C#N)c3ncccc23)[C@@H](C)CN1C(=O)Nc1ccc(N2CCC(CN3CCN(c4cc5c(cc4F)C(=O)N(C4CCC(=O)NC4=O)C5=O)CC3)CC2)nc1 (stereo partly drawn) [Compound 2-22, (2R,5S)-4-(8-cyanoquinolin-5-yl)-N-(6-(4-((4-(2-(2,6-dioxopiperidin-3-yl)-6-fluoro-1,3-dioxoisoindolin-5-yl)piperazin-1-yl)methyl)piperidin-1-yl)pyridin-3-yl)-2,5-dimethylpiperazine-1-carboxamide]	–
> 100	C[C@@H]1CN(c2ccc(C#N)c3ncccc23)[C@@H](C)CN1C(=O)Nc1cnc(N2CCC(CN3CCN(c4cc5c(cc4F)C(=O)N(C4CCC(=O)NC4=O)C5=O)CC3)CC2)nc1 (stereo partly drawn) [Compound 2-23, (2R,5S)-4-(8-cyanoquinolin-5-yl)-N-(2-(4-((4-(2-(2,6-dioxopiperidin-3-yl)-6-fluoro-1,3-dioxoisoindolin-5-yl)piperazin-1-yl)methyl)piperidin-1-yl)pyrimidin-5-yl)-2,5-dimethylpiperazine-1-carboxamide]	–
> 100	C[C@@H]1CN(c2ccc(C#N)c3ncccc23)[C@@H](C)CN1C(=O)Nc1ccc(N2CCC(CN3CCN(c4cc5c(cc4F)C(=O)N(C4CCC(=O)NC4=O)C5=O)CC3)CC2)c(F)c1 (stereo partly drawn) [Compound 2-24, (2R,5S)-4-(8-cyanoquinolin-5-yl)-N-(4-(4-((4-(2-(2,6-dioxopiperidin-3-yl)-6-fluoro-1,3-dioxoisoindolin-5-yl)piperazin-1-yl)methyl)piperidin-1-yl)-3-fluorophenyl)-2,5-dimethylpiperazine-1-carboxamide]	–
